# Results: US20250249110A1, “ANTIMICROBIAL PEPTIDE DERIVATIVE AND USE THEREOF” (SICHUAN UNIVERSITY, priority 2016, published 2025)
# Where a SMILES comes first, the peptide text is derived from it. The star is where a group is joined. Succinyl(4-O-cholesteryl) = CC(C)CCC[C@@H](C)[C@H]1CC[C@H]2[C@@H]3CC=C4C[C@@H](OC(=O)CCC(=O)*)CC[C@]4(C)[C@H]3CC[C@]12C
# What was measured:
# [1] = tested on: 293T human embryonic kidney cell line; format: cell-based; conditions: 293T cells, 24 h, CCK-8
# Protocol: Cytotoxicity of cations is one of the important factors that restrict the application of siRNA transfection. The toxicity of DP7-C micelles to 293T human embryonic kidney cell line, a normal cell, is detected through cell survival experiments. 293T cells are laid in a 96-well plate at a density of 3×10^3 cells per well, and 100 μL of DMEM/20% FBS medium is added to each well and incubated for 24 h. In the experiment, three groups are set up, i.e. DP7-C, PEI25K and Lipofectamin2000; and each group had 10 concentration gradients of 0, 12.5, 18.75, 25, 37, 50, 75, 100, 150 and 200 μg/mL respectively. The survival of the cells was detected by the CCK-8 method. After 24 h of dosing, 10 μL of CCK-8 solution is added to each well and incubated at 37° C. for 2 h. The absorption value of each well is detected at the wavelength of 630 nm and 450 nm by a microplate reader. The standard curve is drawn and IC50 is calculated, and the average value of 6 groups of parallel experiments is taken as the final result.
# [2] = tested on: Staphylococcus aureus 33591; test: Intra-abdominally infected mouse model; format: in vivo; conditions: intravenous administration
# Protocol: The anti-infection activity of DP7-C is determined by the intra-abdominally infected models. […]
# The experimental steps are as follows: • (1) Activate Staphylococcus aureus 33591 with MHB the day before the experiment, wash the activated strains twice with normal saline on the day of the experiment, and determine the concentration of bacterial liquid for later use. • (2) To establish an abdominally infected mouse model, intraperitoneally inject the bacterial solution of 1.5×10^8 cfu/0.5 mL into each mouse. • (3) Intravenously inject the drug by group after one hour of infection, 0.1 mL/mouse. • (4) 24 h later, intraperitoneally inject 5 mL of normal saline into the mouse, gently massage the abdomen, kill the mouse and disinfect with 75% alcohol. After 5 min, scissor the abdominal cavity epithelium, make a small opening in the abdominal cavity, draw ascites as much as possible from the opening with a 1 ml syringe, and then transfer to a sterile EP tube for mixing. • (5) Dilute with normal saline at a dilution of, for example, 10×, 100×, 1000× and 10000×; take three bacterial solutions with suitable concentrations, 20 μL each, coat the MHA plate and incubate in a bacteria incubator overnight. • (6) Select a plate with 20-200 colonies and convert and calculate the amount of bacteria per milliliter in 5 milliliters of ascites.
# [3] = Physical characteristics of DP7-C micelles (Malvin particle size meter, appearance); format: physicochemical
# Excerpt: We detected some physical characteristics such as particle size and Zeta potential of DP7-C micelles by the atomic force microscope and Malvin particle size meter. • 1 Atomic force microscope photography: prepare different concentrations of DP7-C solution, add to the mica sheets dropwise and dry naturally. Put the mica sheets coated with DP7-C on the atomic force microscope for photography. • 2 Detection of particle size and Zeta potential: dissolve DP7-C in Milliq water, determine particle size and Zeta potential by Malvin particle size meter, and detect each sample for four times to obtain their average value. • 3 Appearance and solution state of DP7-C: observe the appearance of MilliQ water, DP7-C water solution and lyophilized powder, and take photos with a camera; wherein, a is MilliQ water, b is DP7-C dissolved in aqueous solution, C is the state of DP7-C lyophilized powder after redissolving, and d is the shape and color of DP7-C lyophilized powder.
# [4] = Critical micelle concentration by pyrene fluorescence probe spectroscopy; format: physicochemical; conditions: aqueous solution
# Excerpt: DP7-C can be self-assembled into micelles in aqueous solution. We detected the critical micelle concentration (CMC) of DP7-C by the pyrene fluorescence probe spectroscopy.
# The fluorescence emission spectrum of pyrene in aqueous solution has five fluorescence peaks, and the ratio of the first emission spectrum light intensity I1 to the third emission spectrum light intensity I3 in aqueous solution (the ratio of fluorescence intensity at 373 nm to that at 384 nm) is about 1.8. According to the literature, the surfactant may solubilize nonpolar organic compounds, and the surfactant at different concentrations may solubilize pyrene to varying degrees. Thus, the solubilizing ability of the solution will have an obvious mutation point after the concentration of surfactant exceeds the critical micelle concentration (CMC). […] Therefore, the CMC of […] in the solution can be determined by measuring the fluorescence spectra of pyrene in DP7-C solutions with different concentrations. […] Then, detect I1 and I3 by a fluorescence spectrophotometer. Add different volumes of sample mother liquor to BD tubes containing trace pyrene to reach the concentrations of 0.0001, 0.001, 0.01, 0.025, 0.05, 0.10, 0.125, 0.25, 0.5, 1.0 and 1.5 mg/ml respectively, and determine the fluorescence spectra of each solution. […]
# mouse PBMC = test: Immune-related cytokine expression by Q-PCR after PBMC stimulation; format: cell-based
# Protocol: In order to determine the changes of cytokines in mouse PBMC after DP7-C stimulation, the isolated mouse PBMC is diluted to 1×10^6 cells/mL and added to a 6-well plate at 2 ml/well, in which the stimulation concentration of DP7-C is 200 μg/ml and the stimulation time is 4 h. After stimulation, the cells are collected and stored in a −80° C. refrigerator. Meanwhile, in order to verify whether DP7-C can reverse LPS-induced inflammatory reaction, an experiment is set up to stimulate PBMC together with LPS: PBMC is diluted to 1×10^6 cells/ml and added to a 6-well plate at 2 mL/well in which the stimulation concentration of DP7-C is 200 μg/mL; after 1 h, stimulated by LPS for 4 h, and cells are collected and stored in −80° C. refrigerator. After all samples are collected, the following steps are performed, including centrifugation, washing, total RNA extraction, reverse transcription and real-time quantitative PCR.
# [5] = Milliq water, Malvin particle size meter
compound,measurement,setting,value
"CC[C@H](C)[C@H](NC(=O)[C@H](CCCNC(=N)N)NC(=O)[C@H](Cc1c[nH]c2ccccc12)NC(=O)[C@H](CCC(N)=O)NC(=O)[C@@H](NC(=O)CCC(=O)O[C@H]1CC[C@@]2(C)C(=CC[C@H]3[C@@H]4CC[C@H]([C@H](C)CCCC(C)C)[C@@]4(C)CC[C@@H]32)C1)C(C)C)C(=O)N[C@@H](CCCNC(=N)N)C(=O)N[C@H](C(=O)N[C@@H](C)C(=O)N[C@H](C(=O)N[C@H](C(=O)N[C@@H](CCCNC(=N)N)C(=O)N[C@@H](CCCCN)C(N)=O)[C@@H](C)CC)C(C)C)C(C)C [DP7-C, Chol-suc-VQWRIRVAVIRK-NH2] ({Succinyl(4-O-cholesteryl)}-VQWRIRVAVIRK-NH2)",IC50,[1],exceeding 200 μg/mL
same,average colony forming unit (CFU) of Staphylococcus aureus,"[2]; DP7-C 1 mg/kg, VAN 20 mg/kg, vs NS group, p<0.01",significantly lower than those in NS group
same,antibacterial effect compared with positive drug group,[2]; no statistical difference,basically the same as that of the positive drug group
same,Zeta potential,[3]; [5],about 28.8±0.27 mV
same,particle size,[3]; [5],about 24.3±1.5 nm
same,solubility in water,[3]; lyophilized powder,soluble in water
same,critical micelle concentration (CMC),[4],3.47 µg/mL
same,"gene expression of IL-1β, MCP-1 and TNF-α",mouse PBMC; 200 μg/mL DP7-C together with LPS,significantly reduced
same,"expression of IL-1, IL-6, MCP-1, M-CSF, TNF-α and other cytokines related to immune activation","mouse PBMC; 200 μg/ml, 4 h",greatly increased
